Patent US20100221274A1, “METHOD OF ADMINISTERING A THYMOSIN ALPHA 1 PEPTIDE” (SCICLONE PHARMACEUTICALS, INC., priority 2001, published 2010)
Peptide text beside a SMILES is read from it.

Key:
[1] = system: activated lymphocytes (CD3+CD25+); assay: activated lymphocytes (CD25+CD3+ by flow cytometry) in 5-FU immune-suppressed rats, Example 1; assay type: in vivo
Method: (§1) In the following examples, which are not intended to be limiting, a continuous infusion of TA1 (N-acetyl-[…]OH) (SEQ ID NO:1) was evaluated in a cancer therapy model with the use of surgically implanted osmotic minipumps, which deliver fluids at a constant flow rate for 5 days. Rats were given 5-fluorouracil (5-FU) to cause immune suppression, and then treated with injected or infused TA1 8 days later (the nadir of white cell count after 5-FU). Treatment groups, 8 rats each, were: control (minipumps with saline); low dose TA1 (0.2 mg/Kg sc injection; empty minipumps); high dose TA1 (3.5 mg/Kg sc injection; empty minipumps); and high dose infused TA1 (3.5 mg/Kg infused by minipumps). Immune parameters were determined at baseline and 8 days after 5-FU treatment (day 1 of TA1 treatment), and also at 5, 12, 20, and 27 days after TA1 treatment.
(§2) 10 week old rats, weighing 250-300 g, received 100 mg/kg 5-fluorouracil (5-FU) for immune suppression.
(§3) 8 days after 5-FU treatment, rats were randomly assigned to one of the following groups (n=8): • Control (saline in minipump) • Low dose TA1, injected s.c. at 0.2 mg/Kg (with empty minipumps) • High dose TA1, injected s.c. at 3.5 mg/Kg (with empty minipumps) • Continuous infusion TA1, provided by minipump at 3.5 mg/Kg/5 days
(§4) Immune parameters were determined at baseline and 8 days after 5-FU treatment (day 1 of TA1 treatment), and also at 5, 12, 20, and 27 days after TA1 treatment.
(§5) The evaluations included NK activity (LDH released from YAC-1 cells after 4 h exposure to PBMC), total leukocyte number (judged by physical cytofluorimetric parameters, after verifying the specificity by monoclonal antibody), total lymphocyte number (CD3+ by flow cytometry), and activated lymphocytes (CD25+CD3+ by flow cytometry).

total lymphocytes (CD3+) = assay: total lymphocyte number (CD3+ by flow cytometry) in 5-FU immune-suppressed rats, Example 2; assay type: in vivo
Method: (§6) 10 week old rats, weighing 250-300 g, received […] 5-FU for immune suppression.
(§7) 8 days after 5-FU treatment, rats were randomly assigned to one of the following groups (n=15): • Control (saline in minipump) • High dose TA1, injected s.c. at 3.5 mg/Kg (with empty minipumps) • Continuous infusion TA1, provided by minipump at 3.5 mg/Kg/5 days
(§8) Immune parameters were determined at baseline and 8 days after 5-FU treatment (day 1 of TA1 treatment), and also at 5 and 14 days after TA1 treatment.
(§9) The evaluations included total leukocyte number (judged by physical cytofluorimetric parameters, after verifying the specificity by monoclonal antibody), granulocytes (flow cytometry using FITC anti rat granulocyte HIS-48), total lymphocyte number (CD3+ by flow cytometry), T helper lymphocytes (CD4+ by flow cytometry), activated lymphocytes (CD25+CD3+ by flow cytometry), and cytokine expression in plasma (IL-2 and IFN-γ by ELISA).

total leukocyte number = assay: total white blood cell count in 5-FU immune-suppressed rats, Example 1; assay type: in vivo
Method: as §1, §2, §3, §4, §5

[2] = system: T helper lymphocytes (CD3+CD4+); assay: T helper lymphocytes (CD4+ by flow cytometry) in 5-FU immune-suppressed rats, Example 2; assay type: in vivo
Method: as §6, §7, §8, §9

granulocytes = granulocytes (flow cytometry, HIS-48) in 5-FU immune-suppressed rats, Example 2; assay type: in vivo
Method: as §6, §7, §8, §9

NK activity = NK activity (LDH released from YAC-1 cells after 4 h exposure to PBMC) in 5-FU immune-suppressed rats, Example 1; assay type: in vivo; conditions: for NK activity: 5 days after TA1 treatment
Method: as §1, §2, §3, §4, §5

IFN-γ = assay: cytokine expression in plasma by ELISA: IFN-γ, Example 2; assay type: in vivo, rats
Method: as §6, §7, §8, §9

[3] = system: activated lymphocytes (CD25+CD3+); assay: activated lymphocytes (CD25+CD3+ by flow cytometry) in 5-FU immune-suppressed rats, Example 2; assay type: in vivo
Method: as §6, §7, §8, §9

[4] = observation of adverse events in treated rats; assay type: in vivo
Method: as §7

IL-2 = assay: cytokine expression in plasma by ELISA: IL-2, Example 2; assay type: in vivo, rats; conditions: for plasma level of IL-2: 14 days after TA1
Method: as §6, §7, §8, §9

[5] = continuous infusion 3.5 mg/Kg/5 days
[6] = one animal, high dose injection followed by infusion
[7] = continuous infusion by minipump 3.5 mg/Kg/5 days
[8] = high dose injected s.c. 3.5 mg/Kg
[9] = low dose injected s.c. 0.2 mg/Kg

O=c1[nH]cc(F)c(=O)[nH]1 [5-FU, 5-fluorouracil]
activated lymphocytes (CD3+CD25+) after 5-FU ([1]; 8 days after 100 mg/kg 5-FU, baseline 65±21): 37±10 cells/mm^3 | total lymphocytes (CD3+) after 5-FU (total lymphocytes (CD3+); 8 days after 100 μg/kg 5-FU, baseline 10,904±1,973): 1,740±560 cells/mm^3 | total white blood cell count after 5-FU (total leukocyte number; 8 days after 100 mg/kg 5-FU, baseline 14,590±2,071): 2,597±582 cells/mm^3 | T helper lymphocytes (CD3+CD4+) after 5-FU ([2]; 8 days after 100 μg/kg 5-FU, baseline 5,411±1,084): 1,710±449 cells/mm^3 | number of granulocytes after 5-FU (granulocytes; 8 days after 100 μg/kg 5-FU, baseline 4,485±1,116): 1,249±432 cells/mm^3 | NK activity after 5-FU (NK activity; 8 days after 100 mg/kg 5-FU, baseline 42±5%): 9±2%

CC[C@H](C)[C@H](NC(=O)[C@H](CCC(=O)O)NC(=O)[C@H](CO)NC(=O)[C@H](CO)NC(=O)[C@@H](NC(=O)[C@H](CC(=O)O)NC(=O)[C@@H](NC(=O)[C@H](C)NC(=O)[C@H](C)NC(=O)[C@H](CC(=O)O)NC(=O)[C@H](CO)NC(C)=O)C(C)C)[C@@H](C)O)C(=O)N[C@H](C(=O)N[C@H](C(=O)N[C@@H](CCCCN)C(=O)N[C@@H](CC(=O)O)C(=O)N[C@@H](CC(C)C)C(=O)N[C@@H](CCCCN)C(=O)N[C@@H](CCC(=O)O)C(=O)N[C@@H](CCCCN)C(=O)N[C@@H](CCCCN)C(=O)N[C@@H](CCC(=O)O)C(=O)N[C@H](C(=O)N[C@H](C(=O)N[C@@H](CCC(=O)O)C(=O)N[C@@H](CCC(=O)O)C(=O)N[C@@H](C)C(=O)N[C@@H](CCC(=O)O)C(=O)N[C@@H](CC(N)=O)C(=O)O)C(C)C)C(C)C)[C@@H](C)O)[C@@H](C)O [TA1] (Ac-SDAAVDTSSEITTKDLKEKKEVVEEAEN-OH)
plasma level of IFN-γ (IFN-γ; TA1 by injection 3.5 mg/Kg s.c., 14 days after treatment): 10 ± 1 pg/mL | plasma level of IFN-γ (IFN-γ; continuous infusion 3.5 mg/Kg/5 days, 14 days after treatment): 14 ± 5 pg/mL | plasma level of IFN-γ (IFN-γ; one animal, both injection and continuous infusion, after 14 days): 45 pg/mL | plasma level of IFN-γ relative to other groups (IFN-γ; s.c. injected TA1 3.5 mg/Kg, 5 days after treatment): higher plasma levels of IFN-γ | activated lymphocytes [3, 5]: 428±89 cells/mm^3 | percentage of lymphocytes which were activated [3, 5]: 4 % of lymphocytes | activated lymphocytes [3, 6]: 976 cells/mm^3 | percentage of lymphocytes which were activated [3, 6]: 10 % of lymphocytes | activated lymphocytes (CD3+CD25+) ([1]; continuous infusion 3.5 mg/Kg/5 days, 12 days after TA1 treatment): 422±105 cells/mm^3 | activated lymphocytes (CD3+CD25+) ([1]; continuous infusion 3.5 mg/Kg/5 days, 20 days after TA1 treatment): 446±73 cells/mm^3 | activated lymphocytes (CD3+CD25+) ([1]; high dose injected 3.5 mg/Kg, 12 days after TA1 treatment): 297±136 cells/mm^3 | activated lymphocytes (CD3+CD25+) ([1]; high dose injected 3.5 mg/Kg, 20 days after TA1 treatment): 321±75 cells/mm^3 | time to recovery of total lymphocytes (CD3+) to baseline levels (total lymphocytes (CD3+); [5]): 5 days | levels of lymphocytes (total lymphocytes (CD3+); continuous infusion 3.5 mg/Kg/5 days, mean of other animals): 9,644±961 cells/mm^3 | time to recovery of total lymphocytes (CD3+) to baseline levels (total lymphocytes (CD3+); injected TA1 3.5 mg/Kg s.c.): 14 days | levels of lymphocytes (total lymphocytes (CD3+); one animal, both injection and continuous infusion (3.5 mg/Kg each)): 9,765 cells/mm^3 | recovery of total white blood cell count (total leukocyte number; [7]): statistically significant and complete recovery to baseline levels after only 5 days | recovery of total white blood cell count (total leukocyte number; low or high dose TA1 by s.c. injection (0.2 or 3.5 mg/Kg)): trended towards a sooner increase in recovery compared to untreated animals | adverse events ([4]; doses of TA1 15 times higher than usual (one animal 30 times higher than usual)): No adverse events were observed | adverse events / condition of the animal ([4]; one animal, both injection (3.5 mg/Kg) and continuous infusion (another 3.5 mg/Kg)): healthy and vigorous, with no obvious adverse events | plasma level of IL-2 (IL-2; [5]): 42 ± 7 pg/mL | plasma level of IL-2 (IL-2; injected TA1 3.5 mg/Kg s.c.): 21 ± 16 pg/mL | plasma level of IL-2 relative to other animals (IL-2; one animal, both injection and continuous infusion): even greater levels of both of the Th1 cytokines measured | recovery of T helper cell levels ([2]; TA1 by either delivery method (injection or continuous infusion, 3.5 mg/Kg)): sufficient to return the levels of T helper cells to baseline | number of granulocytes (granulocytes; TA1 by s.c. injection 3.5 mg/Kg, 5 days): 9,924±3,218 cells/mm^3 | number of granulocytes (granulocytes; continuous infusion 3.5 mg/Kg/5 days, 5 days): 14,652±2,463 cells/mm^3 | number of granulocytes relative to other groups (granulocytes; continuous infusion 3.5 mg/Kg/5 days, after 14 days): still the highest | number of granulocytes (granulocytes; one animal, both injection (3.5 mg/Kg) and continuous infusion (another 3.5 mg/Kg), after 5 days): 19,376 cells/mm^3 | recovery of NK activity (NK activity; [7]): complete recovery of NK activity to baseline levels | NK activity (NK activity; continuous infusion by minipump 3.5 mg/Kg/5 days, baseline 42±5%): 32±4% | time to significant recovery of NK activity (NK activity; [8]): 5 days | NK activity (NK activity; [8]): 16±2% | time to significant recovery of NK activity (NK activity; [9]): 12 days | NK activity (NK activity; [9]): 12±3%
